Experimental data from patent publication US8097585B2, “Methods of treating inflammation by administration of heme oxygenase-1 and products of heme degradation” (priority 2002, dated 2012).
Structures can show the parent of a compound that is named as a salt.

Columns and labels:
HO-1 [1] = experiment: HO-1 protein expression in heart and spleen after CoPPIX (Western blot); format: in vivo, DBA/2 mice; details: CoPPIX 5 mg/kg i.p.
Procedure: Protein extraction and Western blot. DBA/2 mice were injected i.p. with CoPPIX at a dose of 5 mg/kg. Non-treated animals served as naïve controls. One, 2, 4, and 7 days following treatment, the heart and the spleen were excised from the animals, and samples were snap-frozen in liquid nitrogen. Protein extracts were prepared from the obtained tissues, electrophoresed under denaturing conditions (10% polyacrylamide gels) and transferred onto polyvinyldifluoridine membranes (Immobilon™ P, Millipore, Bedford, Mass.). HO-1 was detected using the rabbit anti-human HO-1 polyclonal antibody (Stress Gen Biotechnologies Corp., Victoria, Canada); α-actin was detected using the goat anti-mouse α-actin mAb (1A4, Sigma-Aldrich Corporation). Primary antibodies were detected using horseradish peroxidase conjugated donkey anti-rabbit or goat anti-mouse IgG secondary antibodies (Pierce, Rockford, Ill.). Protein was visualized using the Enhanced Chemi Luminescence (ECL™) Assay kit (Amersham Life Science Inc., Arlington Heights, Ill.), according to the manufacturer's instructions, and stored in the form of photo radiographs (Biomax™ MS, Eastman Kodak, Rochester, N.Y.). The amount of HO-1 expression was normalized with α-actin expression, and was quantified by using the ImageQuant™ software (Molecular Dynamics, Sunny Vale, Calif.).

HO-1 [2] = experiment: HO activity assay on spleen and heart of treated mice; format: in vivo, DBA/2J mice; details: 5 mg/kg i.p., one day after treatment
Procedure: HO activity assay. DBA/2J mice were given either no treatment or CoPPIX or ZnPPIX at a dose of 5 mg/kg, i.p. (n=10 per group). One day after the treatment, the animals were sacrificed, the spleen and the heart were excised, and tissue samples were frozen at −80° C. Frozen tissue samples were homogenized in ice-cold sucrose and Tris-HCl buffer. The microsomal pellet was obtained after centrifugation and re-suspended in MgCl2-potassium phosphate buffer. Sample protein was then incubated with the reaction mixture containing rat liver cytosol, hemin, glucose-6-phosphate, glucose-6-phosphate dehydrogenase and NADPH (Sigma-Aldrich Corporation, St. Louis, Mo.) for 60 minutes at 37° C. The generated bilirubin was measured by reacting with diazotized surfanilic acid to yield azobilirubin using spectrophotometer.

IL-2 = IL-2 assay (ELISA of culture supernatant); format: cell-based, mouse; details: anti-CD3 mAb stimulation, biliverdin 50 or 100 μM
Procedure: IL-2 assay. B6AF1 leukocytes (2.5×10^5 cells/well) were stimulated by anti-CD3 mAb (1 μg/ml), and cultured in 96 well round bottom plates with or without biliverdin (50 or 100 μM). Forty-eight hours later, culture supernatant (100 μl) was collected and stored at −80° C. until use. All cultures were performed in triplicates. IL-2 levels in the supernatants were measured by enzyme-linked immunosorbent assays (ELISA) using an IL-2 assay kit (Quantikine® M, R&D Systems, Inc), following kit instructions. Measurements of each supernatant sample for IL-2 were performed in duplicate. The experiment was repeated 4 times.

NFAT = experiment: EMSA of nuclear extracts, NFAT DNA binding; format: cell-based; details: Jurkat T cells, PMA plus ionomycin, 100 μM biliverdin
Procedure: Nuclear protein extraction and electrophoretic mobility shift assay (EMSA). Jurkat T cells were cultured in 10% FCS supplemented RPMI 1640 with 50 nM phorbol myristyl acetate (PMA) and 2 μM ionomycin (both reagents from ICN Biomedicals) in the presence or absence of 100 μM biliverdin. Following 0, 2, and 4 hrs of stimulation, cells (30×10^6 cells for each group at each time points) were collected, washed twice with PBS, and pelleted. Nuclear and cytoplasmic extracts were prepared according to a modified Shapiro's method (Shapiro et al., DNA 7(1):47-55, 1988). Protein concentrations were determined by the Bradford assay. The following oligonucleotides (Invitrogen, Calsbad, Calif.) were used for EMSA:
NFAT, (coding) 5′-[…]-3′ (SEQ ID NO:5),
(non-coding) 5′-[…]-3′ (SEQ ID NO:6); and
Oligonucleotides were radioactively labeled with [^32P] ATP. The EMSA reactions were assembled as previously described (Usheva et al., Proc. Natl. Acad. Sci. USA 93(24):13571-6, 1996). Digital images from the EMSA radiographs were obtained using an image scanner.

[3] = system: transplanted islets in diabetic mice; experiment: Syngeneic islet transplantation, minimal mass model; format: in vivo, DBA/2 mouse; details: 50 μmol/kg twice daily day-1 until day 7; 140 islets; control hyperglycemic >52 days
Procedure: The ability of exogenously administered biliverdin to protect transplanted islet was evaluated in the minimal mass model. Syngeneic islet transplantation was carried out in the DBA/2 mouse. Islets (140) were transplanted under the kidney capsule of diabetic mice. Test animals were treated with 50 μmol/kg biliverdin twice daily from day-1 until day 7. The controls were treated with vehicle only. Biliverdin treated animals returned to normoglycemia in 7.7±5.5 days; animals in control group remain hyperglycemic (>52 days).

[4] = system: MPO positive cells in intestinal muscularis; experiment: Leukocyte recruitment into intestinal muscularis (MPO histochemistry); format: in vivo, LEW rats
Procedure: Small Intestinal Transplantation. Orthotopic small intestinal transplantation (SITx) was performed in syngeneic Lewis rats. SITx with caval drainage was performed using a previously described procedure (Murase et al., in Handbook of Animal Models in Transplantation Research, Cramer et al., Eds. CRC Press, Boca Raton, Fla., pp. 203-213 (1994)). […] The graft was perfused via the aortic segment with 5 ml chilled Ringer's lactate solution, and the intestinal lumen was irrigated with 20 ml of cold saline solution containing 0.5% neomycin-sulfate (Sigma, St. Louis, Mo.). End-to-side anastomoses between the graft aorta and the recipient infrarenal aorta, and between the graft portal vein and recipient vena cava, were performed with 10-0 Novafil™ suture. The cold ischemic time was 1 hour. The entire recipient intestine was removed and the enteric continuity was restored by proximal and distal end-to-end intestinal anastomoses. Recipient animals were given 20 mg/day prophylactic cefamandole nafate for 3 postoperative days. Transplanted recipients were given water 3 hours after surgery, and were fed 24 hours after surgery.
Leukocyte Recruitment. […] Myeloperoxidase (MPO) activity, as determined by Hanker-Yates histochemistry, was used to quantify the polymorphonuclear neutrophil (PMN) infiltrate in tissues from control and transplanted animals, with and without BV treatment. […]

intestinal graft = experiment: Intestinal microvascular blood flow (laser Doppler); format: in vivo, LEW rats; details: BV
Procedure: Measurement of Intestinal Blood Flow. Intestinal microvascular blood flow was monitored by placing the flat probe of a laser Doppler flowmeter (BLF 21D, Transonic Systems, Ithaca, N.Y.) on the serosal surface of the graft jejunum and ileum adjacent to the mesenteric border. Blood flows in SMA and marginal artery (MA) were also analyzed.
Measurement of Intestinal Blood Flow. Microvascular blood flow for in grafts preserved for 6 hours was measured using a laser Doppler flowmeter (BLF 21D, Transonic Systems, Ithaca, N.Y.) equipped with a flat probe. Intestinal microvascular blood flow was monitored by placing the probe on the serosal surface of the graft jejunum and ileum adjacent to the mesenteric border.

SMILES | HO-1 protein expression in the heart and spleen (HO-1 [1]) | time of maximal HO-1 expression after injection (HO-1 [1]) | HO-1 enzymatic activity (HO-1 [2]) | IL-2 production by splenocytes (IL-2) | DNA binding of NFAT (NFAT) | time to return to normoglycemia [3] [days] | mean number of MPO positive cells ([4]; 24 hours after SITx) | MPO positive cells ([4]; BV injection into normal animals) [cells per ×200 field] | microvascular blood flow following transplantation (intestinal graft)
C=CC1=C(C)c2cc3[n-]c(cc4nc(cc5[n-]c(cc1n2)c(C)c5CCC(=O)[O-])C(CCC(=O)[O-])=C4C)c(C)c3C=C.[Co+2].[H+].[H+] [CoPP, Cobalt protoporphyrin] | up-regulated | one | significantly enhanced | – | – | – | – | – | –
C=CC1=C(C)/C(=C/C2=NC(=C\c3[nH]c(/C=C4\NC(=O)C(C)=C4C=C)c(C)c3CCC(=O)O)/C(CCC(=O)O)=C2C)NC1=O [biliverdin, biliverdin dihydrochloride] | – | – | – | significantly suppressed in a dose-dependent manner | inhibited DNA binding | 7.7 ± 5.5 | significantly decreased | 3.9±1.3 | had no effect
